This is an account of results in patent US20220119868A1, “PROFILING RNA-SMALL MOLECULE BINDING SITES WITH OLIGONUCLEOTIDES” (priority 2018, published 2022).

As usually defined, the IC50 is the point on the concentration scale where inhibition reaches its midpoint. The Kd is the equilibrium constant for the complex coming apart. A higher Kd goes with lower affinity.

The test system of experiment [1] is HCV replication, SGR-Neo-RLuc-JFH1-2A replicon cells established in Huh-7.5. The experiment is described as follows: HCV replication in subgenomic replicon cells (Renilla luciferase). The class given is cell-based, Hepatitis C virus. The note with it: Hepatitis C virus, Huh7.5; replicon cells, luciferase activity; read-out: IC50, inhibition of HCV replication. From the text: (§1) The compounds bind their cognate loops in the 3′ UTR with mid-nanomolar to low micromolar affinities (Table 1). It was next determined if the identified compounds could inhibit HCV RNA replication in HCV subgenomic replicon cells, in particular SGR-Neo-RLuc-JFH1-2A replicon cells established in Huh-7.5 (human hepatoma cells). In this system, an autonomously replicating viral RNA replicon is used to monitor efficiently RNA replication of the virus in the absence of spread of viral RNA to adjacent cells. This is achieved by replacing the structural proteins required to assembly progeny virions with a drug selectable marker (Neo) and a Renilla luciferase (RLuc) reporter gene. Once this replicon has been delivered to human hepatoma cells and selection with G418 (conferred by Neo selectable marker) has occurred, the expression and Renilla luciferase activity is directly correlated with the level of HCV replication^57.
They were therefore assayed for their ability to inhibit HCV replication using this replicon system, with DMSO vehicle and 2′-C-methyladenosine^17 triphosphate serving as negative and positive controls, respectively.
(§2) Effect of compounds on HCV replication. […] Cytotoxicity assays. […] Oligonucleotide profiling of target engagement in vitro. […] Primers can be found in Table 4. […] Inhibition of kinases. […] . Figure S7C).

A further experiment deals with RNA motif libraries A-E. The experiment is described as follows: 2DCS: array-immobilized small molecules incubated with RNA motif libraries. The class given is binding. The following applies: libraries C-E. From the text:
(§3) Identification of RNA-binding Small Molecules by 2DCS. […] We have previously validated the secondary structures formed by members of RNA libraries by enzymatic mapping^8, 12, 34. These discrete RNA motifs were selected because they are present in cellular RNAs. Due to the library-versus-library nature of these studies, they represent the largest screens completed to date, probing >52,000,000 interactions. Of the 1,987 compounds probed, 239 bound RNA (12.0%).
A final screen was then completed in which the 91 array-immobilized compounds were incubated with all five RNA motif libraries separately in the presence of oligonucleotide competitors F-J, d(AT)11 and d(GC)11. Oligonucleotides F-J mimic regions common to all library members, restricting binding to the randomized regions. (Note: oligonucleotide J was not used for hairpin selections.) After rigorous washing to remove unbound RNAs, bound RNAs were harvested and identified by RNA-seq. […]
Identification of Privileged RNA Space by RNA-Seq. […] RNA-seq data were then analyzed by High Throughput Structure-Activity Relationships Through Sequencing (HiT-StARTS)^12 to identify the privileged RNA motifs that bind each small molecule. […] Next, the most privileged RNA motif binders and the most discriminated against RNA motifs (non-binders) for each compound selection was analyzed by generating LOGOS from the highest and lowest 0.5% of Zobs scores^37. […]

For experiment [2], the system named is RNA library A (5-nucleotide hairpin library). Put plainly: 2DCS selection with LOGOS analysis. The class given is binding. The note with it: 5-nucleotide hairpins.
Text: as §3
A final screen was then completed in which the 91 array-immobilized compounds were incubated with all five RNA motif libraries separately in the presence of oligonucleotide competitors F-J, d(AT)11 and d(GC)11. Oligonucleotides F-J mimic regions common to all library members, restricting binding to the randomized regions. (Note: oligonucleotide J was not used for hairpin selections.) After rigorous washing to remove unbound RNAs, bound RNAs were harvested and identified by RNA-seq. By completing selections under conditions of high oligonucleotides stringency (by use of excess competitor oligonucleotides), these studies identified small molecules that bound RNA motifs avidly. A challenge in the small molecule RNA-targeting area has been the development and identification of selective interactions between small molecules and RNAs. In myriad studies, 2DCS has defined selective RNA motif-small molecule interactions with varied affinities^11, 12, 35, 36.
Identification of Privileged RNA Space by RNA-Seq. Using RNA-seq, a large sequencing dataset was obtained for each pool of RNAs that were specifically bound to each small molecule. RNA libraries A, B, C, D, and E had at least 12.1-fold (average: 133.1±111.8), 6.7-fold (average: 80.8±78.7), 9.9-fold (average: 103.5±110.6), 7.2-fold (average: 75.7±65.6), and 6.0-fold (average: 36.3±31.6) coverage for each small molecule selection, respectively, as compared to the number of unique sequences within the corresponding RNA library. It was previously shown that at least 6-fold coverage is required to generate binding landscape maps^12. RNA-seq data were then analyzed by High Throughput Structure-Activity Relationships Through Sequencing (HiT-StARTS)^12 to identify the privileged RNA motifs that bind each small molecule. Briefly, the frequency of occurrence of a selected RNA was compared to the frequency of occurrence of the same RNA from RNA-seq analysis of the starting RNA library to account for biases arising during transcription and RT-PCR. This pooled population comparison affords the parameter Zobs, a metric of statistical confidence. A large, positive Zobs indicates a strong preference for binding the motif while a negative Zobs indicates a strong preference against binding the motif. A Fitness Score is assigned by normalizing the Zobs values to the most statistically significant small molecule-RNA interaction to 100. […] Structure-Activity Relationships (SAR). Next, the most privileged RNA motif binders and the most discriminated against RNA motifs (non-binders) for each compound selection was analyzed by generating LOGOS from the highest and lowest 0.5% of Zobs scores^37. By comparing the LOGOS for related compounds, or DiffLogos, SAR can be defined. Indeed, various hit compounds differ by a single functional group, including compounds A and B (FIG. 5). […] In contrast, the RNA motifs most hindered from binding compounds 1 and 2 (discriminated against) are quite different (FIG. 5B).
Four compounds that share an indolylpyrimidine-2,4-diamine core bound members of A (5-nucleotide hairpin library).
Oligonucleotides. All DNA oligonucleotides were purchased from Integrated DNA Technologies, Inc. (IDT) and used without further purification. RNA oligonucleotide competitors were purchased from Dharmacon and de-protected according to the manufacturer's standard procedure. All oligonucleotide solutions were prepared with NANOpure water. […]

The target of experiment [3] is HCV RNA motif 5′CUG3′/3′G_C5′ (SL II). The experiment is described as follows: In solution, fluorescence-based binding affinity assay, HCV RNA motifs. More on the design: species or system Hepatitis C virus.
Text: as §1
(§4) where n1 is the size of Population 1 (number of sequencing reads for a given RNA from RNA-seq analysis of the selected library), n2 is the size of Population 2 (number of sequencing reads for the same RNA from RNA-seq analysis of the starting library), p1 is the observed proportion of Population 1 (the number of reads for a given RNA from selected library/total number of reads), and p2 is the observed proportion for Population 2 (the number of reads for the same RNA in the starting library/total number of reads). Generation of Logos and DiffLogos: Zobs corresponding to the highest (enriched) 0.5% and lowest (discriminated against) 0.5% scores were analyzed to generate consensus sequences, or Logos. The resulting list of sequences were converted to position weight matrix (PWM) lists for each compound. “Enriched” and “discriminated” sequences were kept separate using JMP®, Version <13.2.1>. SAS Institute Inc., Cary, N.C., 1989-2007. The R package Difflogo,^16 which is part of Bioconductor, was utilized to create the sequence logos from PWM lists for each compound and visually compare the differences between them. Binding Affinity Measurements. Dissociation constants were determined using an in solution, fluorescence-based assay. […] Serial dilutions (1:2) of the small molecule were then completed in 1× Assay Buffer supplemented with 1 mM MgCl2. The solutions were incubated for 30 min at room temperature, transferred to a 96-well plate, and fluorescence intensity measured on a BioTek-FLx800 plate reader. The change in fluorescence intensity as a function of small molecule concentration was fit to a one site binding model per equation 3: […]
as §2

For experiment [4], the target named is HCV RNA motif 5′GUG3′/3′C_C5′ (SL I and SL III). The experiment is described as above. Also on record: species or system Hepatitis C virus.
Text: as §1, §4, §2

The target in experiment [5] is HCV RNA motif 5′UAG3′/3′A_C5′ (SL I). The experiment is described as above. Also on record: species or system Hepatitis C virus.
Text: as §1, §4, §2

The next experiment relates to panel of 22 kinases. The experiment is described as follows: In vitro inhibition of a panel of kinases. The format is biochemical. The following applies: 20 μM; panel of 22 kinases.

Turning to `C[C@@]1(O)[C@H](O)[C@@H](CO)O[C@H]1n1cnc2c(N)ncnc21` [2′-C-methyladenosine, reference compound], in experiment [1], the IC50 stood at 4.5 ± 0.1 µM.

For `CNc1nc(Nc2ccc(C3=NCCN3)cc2)nc(Nc2ccc(C3=NCCN3)cc2)n1` [Compound 2], the “closing base pair preference (LOGOS)” value in the experiment with RNA motif libraries A-E is “potential preference for GU closing base pairs”.

Take `Cn1ccc2cc(-c3cc(NCc4nc5ccccc5[nH]4)nc(N)n3)ccc21` [Compound 3]: in experiment [2], the “nucleotide preference in position 1 (LOGOS)” value is “strong preference for G” and the “nucleotide preference in position 4 (LOGOS)” value is given as “G>U>>A or C”.

In the case of `COc1cc(Nc2cc(-c3ccc4c(ccn4C)c3)nc(N)n2)cc(OC)c1OC` [Compound 4], in experiment [2], the “nucleotide preference in position 1 (LOGOS)” value is recorded as “strong preference for G” and the “nucleotide preference in position 4 (LOGOS)” value was “G>C>>A or U”.

Regarding `Cn1ccc2cc(-c3cc(NCc4cccc(C(F)(F)F)c4)nc(N)n3)ccc21` [Compound 5], the “nucleotide preference in position 4 (LOGOS)” value in experiment [2] is “G>U>>A or C”.

Regarding `Cn1ccc2cc(-c3cc(NCc4cccnc4)nc(N)n3)ccc21` [Compound 6], in experiment [2], the “nucleotide preference in position 4 (LOGOS)” value is given as “G≈U>>A or C”.

On to `O=C(Nc1cc(C2=NCCN2)cc(C2=NCCN2)c1)c1ccc(C(=O)Nc2cc(C3=NCCN3)cc(C3=NCCN3)c2)cc1` [Compound 9], for which the Affinity entry in experiment [3] and in experiment [4] was “N.B” each time. For the same molecule, in experiment [5], the Kd turned out to be 1.3 ± 0.5 µM. The “kinases inhibited in the panel” value with panel of 22 kinases was “No kinases were significantly inhibited”. In experiment [1], the half-inhibitory concentration (IC50) was above 100 µM.

For `O=C(Nc1cccc(C2=NCCN2)c1)c1ccc(-c2ccc(C(=O)Nc3cccc(C4=NCCN4)c3)cc2)cc1` [Compound 10], the results for the dissociation constant Kd in experiment [3], in experiment [4] and in experiment [5] were 7.1 ± 4.2 µM, 3.35 ± 0.77 µM and 0.46 ± 0.14 µM, respectively. The “kinases inhibited in the panel” value in the experiment with panel of 22 kinases is “No kinases were significantly inhibited”. In experiment [1], the IC50 came to 19 ± 2 µM.
